Data on 24 compounds can be found in patent US10144742B2 (Millennium Pharmaceuticals, Inc., priority 2014, dated 2018).

One experiment deals with hNAMPT protein (Homo sapiens (Human), UniProt P43490). The experiment can be described thus: NAMPT enzyme assay (TR-FRET/HTRF, BodiPY ligand, anti 6His-Tb). The experiment is classed as binding. The settings on record: for IC50: NAMPT IC50 range class, read-out: IC50; for inhibition at 1 µM: read-out: Percent Inhibition. The essentials:
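TR-FRET binding assay in which His-tagged human NAMPT with anti-6His-Tb is displaced by compound from a BodiPY ligand, incubated 1 h at rt in the dark. Excitation was at 320 nm, with the 520/486 nm emission ratio read. IC50 was fitted from inhibition relative to DMSO controls.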
(In general: TR-FRET usually uses a lanthanide donor and a delayed reading to cut background.)

For another experiment, the system named is PC3 cells. Kind of experiment: PC3 growth inhibition (Cell-titer glo, 72 hours). The settings on record: compound concentration 1.667 μM, PC3 cells, 72 hours, Cell-titer glo; for inhibition at 1.667 µM: Homo sapiens, PC-3, read-out: Percent Inhibition (PC3 growth inhibition). Format: cell-based. The essentials:
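PC3 cells in RPMI1640 seeded overnight at 37 °C, 5% CO2, then exposed to compound diluted in AIM serum-free medium for 72 h. Viability by CellTiter-Glo luminescence vs DMSO controls; single-concentration % remaining viability (1 μM or 1.667 μM), or GI50/LD50 from curves.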

Sequence of hNAMPT protein (P43490 whole entry): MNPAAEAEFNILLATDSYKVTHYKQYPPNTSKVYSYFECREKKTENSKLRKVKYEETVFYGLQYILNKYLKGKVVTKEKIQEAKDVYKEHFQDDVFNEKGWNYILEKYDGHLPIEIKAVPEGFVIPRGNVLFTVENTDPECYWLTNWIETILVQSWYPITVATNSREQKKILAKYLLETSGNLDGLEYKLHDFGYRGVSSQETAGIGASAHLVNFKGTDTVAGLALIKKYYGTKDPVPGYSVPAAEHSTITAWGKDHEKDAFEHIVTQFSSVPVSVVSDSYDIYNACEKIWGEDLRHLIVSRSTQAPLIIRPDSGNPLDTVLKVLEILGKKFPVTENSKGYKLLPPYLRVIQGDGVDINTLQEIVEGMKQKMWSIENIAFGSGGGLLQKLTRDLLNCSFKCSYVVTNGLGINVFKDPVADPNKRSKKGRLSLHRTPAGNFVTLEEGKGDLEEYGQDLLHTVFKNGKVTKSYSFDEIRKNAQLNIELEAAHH

A word on the IC50: it is the concentration that inhibits the measured activity by half. A word on the inhibition: it is how much of the control response was suppressed. As to `O=C(NCCCc1ncc[nH]1)c1ccc2nc(-n3nccn3)c(-c3ccc(F)cc3)nc2c1` [Compound I-330, N-(3-(1H-imidazol-2-yl)propyl)-3-(4-fluorophenyl)-2-(2H-1,2,3-triazol-2-yl)quinoxaline-6-carboxamide], the IC50 on hNAMPT protein is 100 to 500 nM. Further, on hNAMPT protein (compound concentration 1 μM), the inhibition at 1 µM turned out to be 79%. The inhibition at 1.667 µM in the experiment on PC3 cells came out at 3%.
Consider `CNC1CC(Oc2nc3ccc(C(=O)NCCCc4ncc[nH]4)cc3nc2-c2ccc(F)cc2)C1` (stereo not drawn) [Compound I-331, 3-(4-fluorophenyl)-N-[3-(1H-imidazol-2-yl)propyl]-2-[3-(methylamino)cyclobutoxy]quinoxaline-6-carboxamide], for which the IC50 on hNAMPT protein was under 100 nM. In addition, the inhibition at 1 µM at hNAMPT protein (compound concentration 1 μM) is over 99%. Besides, in the experiment with PC3 cells, the inhibition at 1.667 µM came out at 2%.
Take `Cn1cc(COc2nc3ccc(C(=O)NCCCc4ncc[nH]4)cc3nc2-c2ccc(F)cc2)cn1` [Compound I-332, 3-(4-fluorophenyl)-N-[3-(1H-imidazol-2-yl)propyl]-2-[(1-methyl-1H-pyrazol-4-yl)methoxy]quinoxaline-6-carboxamide]: the IC50 at hNAMPT protein is under 100 nM. Moreover, at hNAMPT protein (compound concentration 1 μM), the inhibition at 1 µM is over 99%. Further, in the experiment on PC3 cells, the inhibition at 1.667 µM came to 34%.
The like results for `COc1cc(-c2nc3cc(C(=O)NCc4ccc5nccn5c4)ccc3nc2-c2ccc(F)cc2)c(F)cn1` [Compound I-333, 3-(5-fluoro-2-methoxypyridin-4-yl)-2-(4-fluorophenyl)-N-(imidazo[1,2-a]pyridin-6-ylmethyl)quinoxaline-6-carboxamide] were, in that order, 100 to 500 nM, 63% and 0%.
On the same counts, the results for `CC(C)Oc1nc2ccc(C(=O)NCCCc3ncc[nH]3)cc2nc1-c1ccc(Cl)s1` [Compound I-334, 3-(5-chloro-2-thienyl)-N-[3-(1H-imidazol-2-yl)propyl]-2-isopropoxyquinoxaline-6-carboxamide] are under 100 nM, over 99% and 1%.
Regarding `Cc1cc(C)cc(-c2nc3cc(C(=O)NCCCc4ncc[nH]4)ccc3nc2-c2ccc(F)cc2)c1` [Compound I-335, 3-(3,5-dimethylphenyl)-2-(4-fluorophenyl)-N-[3-(1H-imidazol-2-yl)propyl]quinoxaline-6-carboxamide], on hNAMPT protein, the half-maximal inhibitory concentration (IC50) is 100 to 500 nM. Further, at hNAMPT protein (compound concentration 1 μM), the inhibition at 1 µM turned out to be 85%. In the experiment with PC3 cells, the inhibition at 1.667 µM amounted to 2%.
On to `Cc1ccc(F)cc1-c1nc2cc(C(=O)NCCCc3ncc[nH]3)ccc2nc1-c1ccc(F)cc1` [Compound I-336, 3-(5-fluoro-2-methylphenyl)-2-(4-fluorophenyl)-N-[3-(1H-imidazol-2-yl)propyl]quinoxaline-6-carboxamide], for which the 50% inhibitory concentration (IC50) at hNAMPT protein is 100 to 500 nM. For the same compound, the inhibition at 1 µM at hNAMPT protein (compound concentration 1 μM) came out at 88%. Also, the inhibition at 1.667 µM with PC3 cells turned out to be 1%.
The like results for `O=C(NCCCc1ncc[nH]1)c1ccc2nc(-c3ccc(F)cc3)c(-c3cc(F)c(F)cc3F)nc2c1` [Compound I-337, 2-(4-fluorophenyl)-N-[3-(1H-imidazol-2-yl)propyl]-3-(2,4,5-trifluorophenyl)quinoxaline-6-carboxamide] were, in that order, 100 to 500 nM, 88% and 3%.
On the same counts, the results for `CO[C@H]1C[C@H](Oc2nc3ccc(C(=O)NCCCc4ncc[nH]4)cc3nc2-c2ccc(F)cc2)C1` [Compound I-338, 3-(4-fluorophenyl)-N-[3-(1H-imidazol-2-yl)propyl]-2-[(trans-3-methoxycyclobutyl)oxy]quinoxaline-6-carboxamide] are under 100 nM, over 99% and 1%.
The like results for `CC(C)Oc1nc2ccc(C(=O)NCCCc3ncc[nH]3)cc2nc1-c1ccc(F)c(F)c1` [Compound I-339, 3-(3,4-difluorophenyl)-N-[3-(1H-imidazol-2-yl)propyl]-2-isopropoxyquinoxaline-6-carboxamide] were, in that order, under 100 nM, 91% and 1%.
For `O=C(NCCCc1ncc[nH]1)c1ccc2nc(-c3ccc(F)cc3)c(-c3cccs3)nc2c1` [Compound I-340, 2-(4-Fluorophenyl)-N-[3-(1H-imidazol-2-yl)propyl]-3-(2-thienyl)quinoxaline-6-carboxamide], on hNAMPT protein, the 50% inhibitory concentration (IC50) is under 100 nM. Also, the inhibition at 1 µM on hNAMPT protein (compound concentration 1 μM) was over 99%. In addition, in the experiment on PC3 cells, the inhibition at 1.667 µM came to 3%.
On the same counts, the results for `CC(C)(C)OCc1nc2ccc(C(=O)NCCCc3ncc[nH]3)cc2nc1-c1ccc(F)cc1` [Compound I-341, N-(3-(1H-imidazol-2-yl)propyl)-2-(tert-butoxymethyl)-3-(4-fluorophenyl)quinoxaline-6-carboxamide] are 100 to 500 nM, 73% and 1%.
On the same counts, the results for `Cc1ccsc1-c1nc2cc(C(=O)NCCCc3ncc[nH]3)ccc2nc1-c1ccc(F)cc1` [Compound I-342, 2-(4-fluorophenyl)-N-[3-(1H-imidazol-2-yl)propyl]-3-(3-methyl-2-thienyl)quinoxaline-6-carboxamide] are under 100 nM, 89% and 3%.
On the same counts, the results for `CCOc1ccc(F)c(-c2nc3cc(C(=O)NCCCc4ncc[nH]4)ccc3nc2-c2ccc(F)cc2)c1` [Compound I-343, 3-(5-ethoxy-2-fluorophenyl)-2-(4-fluorophenyl)-N-[3-(1H-imidazol-2-yl)propyl]quinoxaline-6-carboxamide] are 100 to 500 nM, 82% and 1%.
As for `COc1cc(-c2nc3cc(C(=O)NCCCc4ncc[nH]4)ccc3nc2OC(C)C)ccc1F` [Compound I-344, 3-(4-fluoro-3-methoxyphenyl)-N-[3-(1H-imidazol-2-yl)propyl]-2-isopropoxyquinoxaline-6-carboxamide], at hNAMPT protein, the half-inhibitory concentration (IC50) was under 100 nM. Besides, the “Percent Inhibition” value on hNAMPT protein (compound concentration 1 μM) is reported as over 99%. In addition, the “Percent Inhibition (PC3 growth inhibition)” value in the experiment on PC3 cells is 1%.
With `CN1CCC(Oc2nc3ccc(C(=O)NCCCc4ncc[nH]4)cc3nc2-c2ccc(F)cc2)CC1` [Compound I-345, 3-(4-fluorophenyl)-N-[3-(1H-imidazol-2-yl)propyl]-2-[(1-methylpiperidin-4-yl)oxy]quinoxaline-6-carboxamide], the half-inhibitory concentration (IC50) at hNAMPT protein is under 100 nM. Besides, on hNAMPT protein (compound concentration 1 μM), the inhibition at 1 µM stood at 98%. For the same compound, in the experiment with PC3 cells, the inhibition at 1.667 µM amounted to 2%.
The like results for `CN1CCCCC1COc1nc2ccc(C(=O)NCCCc3ncc[nH]3)cc2nc1-c1ccc(F)cc1` (stereo not drawn) [Compound I-346, 3-(4-fluorophenyl)-N-[3-(1H-imidazol-2-yl)propyl]-2-[(1-methylpiperidin-2-yl)methoxy]quinoxaline-6-carboxamide] were, in that order, under 100 nM, 98% and 3%.
On the same counts, the results for `O=C(NCCCc1ncc[nH]1)c1ccc2nc(OCc3cn[nH]c3)c(-c3ccc(F)cc3)nc2c1` [Compound I-347, 3-(4-fluorophenyl)-N-[3-(1H-imidazol-2-yl)propyl]-2-(1H-pyrazol-4-ylmethoxy)quinoxaline-6-carboxamide] are under 100 nM, 97% and 33%.
The like results for `O=C(NCCCc1ncc[nH]1)c1ccc2nc(OCC3COC3)c(-c3ccc(F)cc3)nc2c1` [Compound I-348, 3-(4-fluorophenyl)-N-[3-(1H-imidazol-2-yl)propyl]-2-(oxetan-3-ylmethoxy)quinoxaline-6-carboxamide] were, in that order, under 100 nM, over 99% and 3%.
Consider `CC(Oc1nc2ccc(C(=O)NCCCc3ncc[nH]3)cc2nc1-c1ccc(F)cc1)c1ccccc1` (stereo not drawn) [Compound I-349, 3-(4-fluorophenyl)-N-[3-(1H-imidazol-2-yl)propyl]-2-(1-phenylethoxy)quinoxaline-6-carboxamide], for which the IC50 on hNAMPT protein was under 100 nM. In addition, the inhibition at 1 µM at hNAMPT protein (compound concentration 1 μM) is 91%. The inhibition at 1.667 µM in the experiment with PC3 cells worked out at 3%.
On to `O=C(NCCCc1ncc[nH]1)c1ccc2nc(-c3ccc(F)cc3)c(-c3cccc(OC(F)(F)F)c3)nc2c1` [Compound I-350, 2-(4-fluorophenyl)-N-[3-(1H-imidazol-2-yl)propyl]-3-[3-(trifluoromethoxy)phenyl]quinoxaline-6-carboxamide], for which, at hNAMPT protein, the half-maximal inhibitory concentration (IC50) is 100 to 500 nM. Besides, the inhibition at 1 µM at hNAMPT protein (compound concentration 1 μM) is 86%. For the same compound, in the experiment on PC3 cells, the inhibition at 1.667 µM is 2%.
On the same counts, the results for `O=C(NCCCc1ncc[nH]1)c1ccc2nc(OCc3ccoc3)c(-c3ccc(F)cc3)nc2c1` [Compound I-351, 3-(4-fluorophenyl)-2-(3-furylmethoxy)-N-[3-(1H-imidazol-2-yl)propyl]quinoxaline-6-carboxamide] are under 100 nM, 96% and 3%.
The like results for `O=C(NCCCc1ncc[nH]1)c1ccc2nc(O[C@@H]3CCOC3)c(-c3ccc(Cl)cc3)nc2c1` [Compound I-352, 3-(4-chlorophenyl)-N-[3-(1H-imidazol-2-yl)propyl]-2-[(3R)-tetrahydrofuran-3-yloxy]quinoxaline-6-carboxamide] were, in that order, under 100 nM, 99% and 2%.
On the same counts, the results for `O=C(NCCCc1ncc[nH]1)c1ccc2nc(-c3ccc(F)cc3)c(-c3cc(Cl)ccc3Cl)nc2c1` [Compound I-353, 3-(2,5-dichlorophenyl)-2-(4-fluorophenyl)-N-[3-(1H-imidazol-2-yl)propyl]quinoxaline-6-carboxamide] are under 100 nM, 97% and 2%.
